Laboratory results as given in US6596687B1, “Cell adhesion inhibitors” (Biogen, Inc., priority 1995, dated 2003).
Numbered stars: 1 amine (or outer) side, 2 acyl side, 3 side chain; on linkers, the order of the positions; unused ones are H or OH. Square brackets hold non-standard residues; d marks the D form. Peptide text beside a SMILES is read from it. * marks the point of attachment. X3 = COc1cc(CC(=O)[*:2])ccc1N[*:1]; X2 = O=C(Cc1ccc(N[*:1])cc1)[*:2]; PhAc = O=C(Cc1ccccc1)*; CO = O=C([*:1])[*:2]; NHPh = c1ccc(N*)cc1; X1 = Oc1ccccc1N*

Molecular target: T1, VLA4 (Homo sapiens, UniProt P05556+P13612)
T1 construct: endogenous in cells; host or cells: Ramos cells
Assay: Inhibition of VLA4-dependent adhesion of Ramos cells to BSA-CS1
Type: cell-based
Conditions: Ramos cells, BSA-CS1 coated wells, 2 mM MnCl2, 30 minutes at room temperature; read-out: IC50
Procedure, shortened: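 BCECF-AM-labelled Ramos cells in Tris buffer pH 7.4 with 2 mM MnCl2 were added with compound to wells coated with BSA-conjugated Cys-Tyr-CS1 peptide (1 μg/mL). Cells and compound were incubated for 30 min at room temperature, in triplicate. Inhibition was quantified from bound fluorescence against no-compound controls, with uncoated wells used for nonspecific binding.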

T1 sequence (P13612 34-1032): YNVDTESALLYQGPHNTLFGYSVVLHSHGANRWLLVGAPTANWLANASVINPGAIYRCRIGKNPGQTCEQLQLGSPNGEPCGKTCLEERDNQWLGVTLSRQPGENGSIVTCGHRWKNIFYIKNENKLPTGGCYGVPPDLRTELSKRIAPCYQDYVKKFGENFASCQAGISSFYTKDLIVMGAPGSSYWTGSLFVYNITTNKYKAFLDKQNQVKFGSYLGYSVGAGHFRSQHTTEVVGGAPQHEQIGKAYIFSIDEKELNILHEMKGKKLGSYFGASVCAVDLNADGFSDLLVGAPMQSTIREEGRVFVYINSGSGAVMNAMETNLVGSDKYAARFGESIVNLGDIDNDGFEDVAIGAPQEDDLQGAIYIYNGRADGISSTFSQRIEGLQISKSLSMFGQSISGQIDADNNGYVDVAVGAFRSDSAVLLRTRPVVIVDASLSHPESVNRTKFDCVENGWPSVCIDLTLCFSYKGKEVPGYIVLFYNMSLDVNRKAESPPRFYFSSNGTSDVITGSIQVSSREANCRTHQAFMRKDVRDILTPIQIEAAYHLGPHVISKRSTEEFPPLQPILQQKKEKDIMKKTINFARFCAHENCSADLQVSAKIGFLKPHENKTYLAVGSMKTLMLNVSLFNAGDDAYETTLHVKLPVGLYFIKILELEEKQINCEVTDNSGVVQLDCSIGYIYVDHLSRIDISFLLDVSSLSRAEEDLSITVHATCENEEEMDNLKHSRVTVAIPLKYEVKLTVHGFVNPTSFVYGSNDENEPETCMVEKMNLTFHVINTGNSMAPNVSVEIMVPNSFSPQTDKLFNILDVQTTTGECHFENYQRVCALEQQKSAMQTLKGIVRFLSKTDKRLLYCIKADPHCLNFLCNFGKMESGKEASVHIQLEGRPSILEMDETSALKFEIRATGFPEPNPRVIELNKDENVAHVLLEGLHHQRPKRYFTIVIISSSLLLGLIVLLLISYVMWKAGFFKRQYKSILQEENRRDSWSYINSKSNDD
T1 sequence (P05556 21-798): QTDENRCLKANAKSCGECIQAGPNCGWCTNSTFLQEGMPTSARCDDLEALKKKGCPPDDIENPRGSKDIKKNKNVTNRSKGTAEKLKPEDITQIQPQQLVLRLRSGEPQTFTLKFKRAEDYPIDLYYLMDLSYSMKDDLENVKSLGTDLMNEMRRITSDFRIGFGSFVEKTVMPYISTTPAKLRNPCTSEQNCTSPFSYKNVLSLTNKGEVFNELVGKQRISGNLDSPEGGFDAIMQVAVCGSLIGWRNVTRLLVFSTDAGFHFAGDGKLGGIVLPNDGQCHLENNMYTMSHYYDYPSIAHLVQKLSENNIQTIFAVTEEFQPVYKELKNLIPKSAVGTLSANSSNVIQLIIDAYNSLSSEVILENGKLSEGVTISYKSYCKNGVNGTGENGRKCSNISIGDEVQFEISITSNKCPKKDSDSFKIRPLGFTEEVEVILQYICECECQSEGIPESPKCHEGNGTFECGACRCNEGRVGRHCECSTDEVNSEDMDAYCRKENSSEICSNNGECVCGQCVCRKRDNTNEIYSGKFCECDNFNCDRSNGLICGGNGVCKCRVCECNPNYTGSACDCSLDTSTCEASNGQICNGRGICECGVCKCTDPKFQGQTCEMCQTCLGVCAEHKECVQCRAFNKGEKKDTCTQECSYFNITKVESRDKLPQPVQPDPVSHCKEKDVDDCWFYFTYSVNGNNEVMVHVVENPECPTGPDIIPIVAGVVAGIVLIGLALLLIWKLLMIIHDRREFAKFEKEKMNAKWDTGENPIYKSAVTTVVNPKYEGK

SMILES | IC50 [µM]
CC(C)C[C@H](NC(=O)OC(C)(C)C)C(=O)N[C@@H](CC(=O)O)C(=O)N[C@H](C(=O)NC(C)(C)C)[C@@H](C)O [Compound 62] (HELM PEPTIDE1{[CC(C)(C)OC(=O)[*:2]].L.D.T.[CC(C)(C)N[*:1]]}$$$$V2.0) | > 10
CC(C)CNC(=O)[C@H](CC(=O)O)NC(=O)[C@H](CC(C)C)NC(=O)c1ccccc1 [Compound 101] | > 10
COC(=O)[C@@H](NC(=O)[C@H](CC(=O)O)NC(=O)[C@H](CC(C)C)NC(=O)c1cc2ccccc2cn1)C(C)C [Compound 156] | 0.05 to 10
COC(=O)[C@@H](NC(=O)[C@H](CC(=O)O)N(C)C(=O)[C@H](CC(C)C)NC(=O)CCc1ccc(O)cc1)C(C)C [Compound 22] | > 10
CSCC[C@H](NC(=O)Cc1ccc(NC(=O)Nc2ccccc2C)cc1)C(=O)N[C@@H](CC(=O)O)C(=O)N[C@H](C(N)=O)C(C)C [Compound 221] | < 0.05
CC[C@H](C)[C@H](NC(=O)[C@H](CC(=O)O)NC(=O)[C@@H]1CCCN1C(=O)Cc1ccc(NC(=O)Nc2ccccc2C)cc1)C(N)=O [Compound 244] | < 0.05
COC(=O)[C@@H](NC(=O)[C@H](CC(=O)O)NC(=O)[C@H](CC(C)C)NC(=O)Cc1ccccc1)[C@@H](C)OC(C)=O [Compound 193] (PhAc-Leu-Asp-Thr(Ac)-OMe) | > 10
CC[C@H](C)[C@H](NC(=O)[C@H](CC(=O)O)NC(=O)[C@H](CCC(N)=O)NC(=O)Cc1ccc(NC(=O)Nc2ccccc2C)cc1)C(N)=O [Compound 300] | < 0.05
CC(C)[C@H](NC(=O)[C@H](CC(=O)O)NC(=O)[C@H](Cc1ccccc1)NC(=O)c1cc2ccccc2cn1)C(=O)O [Compound 81] | > 10
CC(C)[C@H](NC(=O)[C@H](CC(=O)O)NC(=O)[C@H](C)NC(=O)C1Cc2ccccc2CN1)C(=O)O (stereo partly drawn) [Compound 96] (HELM PEPTIDE1{[O=C(C1Cc2ccccc2CN1)[*:2]].A.D.V}$$$$V2.0) | > 10
O=C(O)C[C@H](NC(=O)c1cc2ccccc2cn1)C(=O)N[C@@H](Cc1ccccc1)C(=O)O [Compound 87] | > 10
CC(C)C[C@H](NC(=O)CCC(=O)N(C)c1ccccc1)C(=O)N[C@@H](CC(=O)O)C(=O)N[C@H](C(=O)O)C(C)C [Compound 109] | > 10
CC(C)CNC(=O)[C@H](CC(=O)O)NC(=O)[C@H](CC(C)C)NC(=O)c1cc2ccccc2cn1 [Compound 157] | 0.05 to 10
CC(C)C[C@H](NC(=O)Cc1ccccc1)C(=O)N[C@@H](CC(=O)O)C(=O)N[C@H](C(=O)N1CCC[C@H]1C(=O)O)C(C)C [Compound 34] | 0.05 to 10
CC(C)[C@H](NC(=O)[C@H](CC(=O)O)NC(=O)CCCCc1ccccc1)C(=O)N1CCC[C@H]1C(=O)O [Compound 150] | > 10
CNC(=O)[C@@H](NC(=O)[C@H](CC(=O)O)NC(=O)[C@H](CC(C)C)N(C)C(=O)CCc1ccccc1)C(C)C [Compound 182] (HELM PEPTIDE1{[O=C(CCc1ccccc1)[*:2]].[meL].D.V.[CN[*:1]]}$$$$V2.0) | > 10
CC(C)C[C@H](NC(=O)c1ccc2ccccc2n1)C(=O)N[C@@H](CC(=O)O)C(=O)N[C@H](C(=O)N1CCN(c2ccccc2)CC1)C(C)C [Compound 127] | > 10
COC(=O)[C@H](C(C)C)N(C)C(=O)[C@H](CC(=O)O)NC(=O)[C@H](CC(C)C)NC(=O)CCc1ccc(O)cc1 [Compound 20] | > 10
CC(C)[C@H](NC(=O)[C@H](CC(=O)O)NC(=O)[C@H](C)NC(=O)c1cc2ccccc2cn1)C(=O)O [Compound 97] | > 10
CC(C)C[C@H](NC(=O)c1cc2ccccc2cn1)C(=O)N[C@@H](CC(=O)O)C(=O)O [Compound 12] | > 10
CNC(=O)[C@@H](NC(=O)[C@H](CC(=O)O)NC(=O)C1(NC(=O)OC(C)(C)C)CCc2ccccc2C1)C(C)C (stereo partly drawn) [Compound 133] | > 10
CC(C)[C@H](NC(=O)[C@H](CC(=O)O)NC(=O)OC(C)(C)C)C(=O)O [Compound 68] (HELM PEPTIDE1{[CC(C)(C)OC(=O)[*:2]].D.V}$$$$V2.0) | > 10
CC(C)C[C@H](NC(=O)C1(N)CCc2ccccc2C1)C(=O)N[C@@H](CC(=O)O)C(=O)N[C@H](C(=O)O)C(C)C (stereo partly drawn) [Compound 67] (HELM PEPTIDE1{[NC1(C(=O)[*:2])CCc2ccccc2C1].L.D.V}$$$$V2.0) | > 10
CC(C)C[C@H](NC(=O)Cc1ccc(NC(=O)Nc2ccccc2)cc1)C(=O)N[C@@H](CC(=O)O)C(=O)NCc1ccccc1 [Compound 213] | 0.05 to 10
CNC(=O)[C@@H](NC(=O)[C@H](CC(=O)O)NC(=O)[C@H](Cc1ccc(O)cc1)NC(=O)Cc1ccccc1)C(C)C [Compound 129] (HELM PEPTIDE1{[O=C(Cc1ccccc1)[*:2]].Y.D.V.[CN[*:1]]}$$$$V2.0) | > 10
CSCC[C@H](NC(=O)Cc1ccc(NC(=O)Nc2ccccc2O)cc1)C(=O)N[C@@H](CC(=O)O)C(=O)N[C@H](C(=O)N1CCC[C@H]1C(=O)O)C(C)C [Compound 146] ({X1-CO}-[X2]MDVP-OH) | < 0.05

SMILES | IC50 [µM]
CC(C)CNC(=O)[C@H](CC(=O)O)NC(=O)[C@H](CC(C)C)NC(=O)CCCc1ccccc1 [Compound 161] | > 10
Cc1ccccc1NC(=O)Nc1ccc(CC(=O)N[C@@H](CO)C(=O)N[C@@H](CC(=O)O)C(=O)N[C@@H](CC(C)C)C(N)=O)cc1 [Compound 276] | < 0.05
COc1ccc(CNC(=O)[C@@H](NC(=O)[C@H](CC(=O)O)NC(=O)[C@H](CC(C)C)NC(=O)c2ccc3ccccc3n2)[C@@H](C)O)cc1 [Compound 197] | 0.05 to 10
CNC(=O)[C@@H](NC(=O)[C@H](CC(=O)O)NC(=O)[C@H](CC(C)C)N(C)C(=O)CCCc1ccccc1)C(C)C [Compound 348] | > 10
CC(C)C[C@H](NC(=O)C1CCc2ccccc2N1)C(=O)N[C@@H](CC(=O)O)C(=O)N[C@H](C(=O)Nc1ccc(F)cc1)C(C)C (stereo partly drawn) [Compound 122] | > 10
CNC(=O)[C@@H](NC(=O)[C@H](CC(=O)O)NC(=O)[C@H](CCCNC(=N)N)NC(=O)Cc1ccccc1)C(C)C [Compound 131] (HELM PEPTIDE1{[O=C(Cc1ccccc1)[*:2]].R.D.V.[CN[*:1]]}$$$$V2.0) | > 10
CNC(=O)[C@@H](NC(=O)[C@H](CC(=O)O)NC(=O)[C@H](CC(C)C)NC(=O)Cc1ccccc1)C(C)C [Compound 181] (HELM PEPTIDE1{[O=C(Cc1ccccc1)[*:2]].L.D.V.[CN[*:1]]}$$$$V2.0) | > 10
COc1cc(CC(=O)N[C@@H](CC(C)C)C(=O)N[C@@H](CC(=O)O)C(=O)N[C@H](C(=O)N2CCC[C@H]2C(N)=O)C(C)C)ccc1NC(=O)Nc1ccccc1 [Compound 147] ({NHPh-CO}-[X3]LDVP-NH2) | < 0.05
COC(=O)[C@@H]1CCCN1C(=O)[C@@H](NC(=O)[C@H](CC(=O)O)NC(=O)[C@H](CC(C)C)NC(=O)Cc1ccccc1)C(C)C [Compound 35] | 0.05 to 10
CNC(=O)[C@@H](NC(=O)[C@H](CC(=O)O)NC(=O)[C@H](CC(C)C)N(C)C(=O)c1ccc2ccccc2n1)C(C)C [Compound 179] | > 10
CC(C)CNC(=O)[C@@H](NC(=O)[C@H](CC(=O)O)NC(=O)[C@H](CC(C)C)NC(=O)Cc1ccc(NC(=O)Nc2ccccc2)cc1)C(C)C [Compound 205] | 0.05 to 10
COC(=O)[C@H](CCSC)NC(=O)[C@@H](NC(=O)[C@H](CC(=O)O)NC(=O)[C@H](CC(C)C)NC(=O)OC(C)(C)C)C(C)C [Compound 167] (HELM PEPTIDE1{[CC(C)(C)OC(=O)[*:2]].L.D.V.M.[CO[*:1]]}$$$$V2.0) | > 10
CC(C)C[C@H](NC(=O)c1ccc2ccccc2n1)C(=O)N[C@@H](CC(=O)O)C(=O)N[C@@H](CC(=O)O)C(=O)O [Compound 160] | > 10
CNC(=O)[C@@H](NC(=O)[C@H](CC(=O)O)NC(=O)[C@H](CC(N)=O)NC(=O)Cc1ccccc1)C(C)C [Compound 132] (HELM PEPTIDE1{[O=C(Cc1ccccc1)[*:2]].N.D.V.[CN[*:1]]}$$$$V2.0) | > 10
COc1cc(CC(=O)N[C@@H](CC(C)C)C(=O)N[C@@H](CC(=O)O)C(=O)N[C@H](C(=O)N2CCC[C@H]2C(=O)O)C(C)C)ccc1NC(=O)Nc1ccccc1 [Compound 1] ({NHPh-CO}-[X3]LDVP-OH) | < 0.05
CNC(=O)[C@@H](NC(=O)[C@H](CC(=O)O)NC(=O)[C@H](CC(C)C)N(C)C(=O)Cc1ccc(OC)cc1)C(C)C [Compound 45] | > 10
COC(=O)[C@@H](NC(=O)[C@H](CC(=O)O)NC(=O)[C@H](CC(C)C)NC(=O)Cc1ccccc1)[C@@H](C)OC [Compound 190] (PhAc-Leu-Asp-Thr(Me)-OMe) | > 10
COC(=O)[C@@H](NC(=O)[C@H](CC(=O)O)NC(=O)[C@H](CC(C)C)N(CCc1ccccc1)C(=O)CCc1ccccc1)C(C)C [Compound 30] | > 10
COC(=O)[C@@H](NC(=O)[C@H](CC(=O)O)NC(=O)[C@H](CC(C)C)NS(=O)(=O)c1ccc(OC)cc1)[C@@H](C)O [Compound 177] | > 10
CNC(=O)[C@@H](NC(=O)[C@H](CC(=O)O)NC(=O)[C@H](CC(C)C)NC(=O)c1ccc2ccccc2n1)[C@@H](C)OC [Compound 59] | 0.05 to 10
Cc1ccccc1NC(=O)Nc1ccc(CC(=O)N[C@@H](CC(C)C)C(=O)N[C@@H](CC(=O)O)C(=O)N[C@@H](Cc2c[nH]c3ccccc23)C(N)=O)cc1 [Compound 239] | < 0.05
CC(C)CNC(=O)[C@H](CC(=O)O)NC(=O)[C@H](CC(C)C)NC(=O)Cc1ccc(NC(=O)Nc2ccccc2)cc1 [Compound 217] | 0.05 to 10
CC(C)[C@H](NC(=O)[C@H](CC(=O)O)NC(=O)C1Cc2ccccc2CN1)C(=O)O (stereo partly drawn) [Compound 71] (HELM PEPTIDE1{[O=C(C1Cc2ccccc2CN1)[*:2]].D.V}$$$$V2.0) | > 10
CNC(=O)[C@@H](NC(=O)[C@H](CC(=O)O)NC(=O)[C@H](CC(C)C)NS(=O)(=O)c1ccccc1)C(C)C [Compound 189] | > 10
CC(C)C[C@H](NC(=O)Cc1ccc(NC(=O)Nc2ccccc2)cc1)C(=O)N[C@@H](CC(=O)O)C(=O)N[C@H](C(=O)N1CCC[C@H]1C(=O)O)C(C)C [Compound 145] ({NHPh-CO}-[X2]LDVP-OH) | < 0.05
